Measured values as given in paper PMC5288202, “Simultaneous inhibition of Vps34 kinase would enhance PI3Kδ inhibitor cytotoxicity in the B-cell malignancies” (Oncotarget, 2016).
Like-named read-outs stand apart in the source and are kept apart here.

What was measured:
Format in all cases: cell-based
[1] = test system: CMK; test: Anti-proliferative effect; conditions: Homo sapiens, read-out: GI50 CMK
[2] = test system: Namalwa; test: Anti-proliferative effect; conditions: Burrkit lymphoma; read-out: GI50 Namalwa
[3] = test system: Ramos; test: Anti-proliferative effect; conditions: Homo sapiens, Burrkit lymphoma, read-out: GI50 Ramos
[4] = test system: NOMO-1; test: Anti-proliferative effect; conditions: Homo sapiens, NOMO-1; AML (FLT3wt); read-out: GI50 NOMO-1
[5] = test system: NB4; test: Anti-proliferative effect; conditions: Homo sapiens; AML-3 (FLT3wt); read-out: GI50 NB4
[6] = test system: MOLM-14; test: Anti-proliferative effect; conditions: Homo sapiens, MOLM-14; AML (FLT3-ITD)
[7] = test system: HEL; test: Anti-proliferative effect; conditions: Homo sapiens, AML(FLT3wt), read-out: GI50 HEL
[8] = test system: OCI-AML-2; test: Anti-proliferative effect; conditions: Homo sapiens, OCI-AML2; AML(FLT3wt); read-out: GI50 OCI-AML-2
[9] = test system: HT; test: Anti-proliferative effect; conditions: Homo sapiens, B-cell lymphoma, read-out: GI50 HT
[10] = test system: MOLM-13; test: Anti-proliferative effect; conditions: Homo sapiens, AML(FLT3-ITD)
[11] = test system: MV4-11; test: Anti-proliferative effect; conditions: Homo sapiens, MV4-11; AML (FLT3-ITD)
[12] = test system: pERK in MEC-2 cells; test: pERK immunoblotting
From the text: The following antibodies were purchased from Cell Signaling Technology: Akt(#4691), Phospho-Akt(Thr308)(#4056), Phospho-Akt(Ser473)(#4060), GAPDH, GSK-3β(#9315), Phospho-GSK-3β(#9323), FoxO1(#2880), Phospho-FoxO1 (Thr24)/FoxO3a(Thr32)/FoxO4(Thr28)(#2599), PRAS40(#2691), Phospho-PRAS40 (Thr246)(#2997), 4E-BP1(#9644), p70 S6K(#2708), Phospho-p70 S6K (Thr389)(#9234). SQSTM1/p62 (D5E2)(#8025), LC3B(#12513). PARP(#9532), Caspase-3(#9665), Phospho-p44/42 MAPK (Erk1/2) (Thr202/Tyr204)(#4377), p44/42 MAPK (Erk1/2) (#4695), Phospho-NF-ΚB P65 (Ser 536)(#3033), NF-ΚB P65(#4764). Lysophosphatidic Acid (#sc-201053, Santa Cruz), Recombinant Human PDGF-BB (#220-BB, R&D), Recombinant Human C5a (Peprotech, #300-70), goat anti-IgM (#5C07615, Meridian). LC3B antibody (#3868, CST). Tubulin antibody (#8035, Santa Cruz). EEA1 antibody (#610456, BD Bioscience) and LAMP1 antibody (#24170, Abcam). Secondary antibodies, Alexa488-anti-mouse, Alexa594-anti-rabbit and Prolong gold mounting medium with DAPI were purchased from Invitrogen.

[13] = test system: Hs 505T; test: Anti-proliferative effect; conditions: Homo sapiens; CLL; read-out: GI50 Hs 505T
[14] = test system: U937; test: Anti-proliferative effect; conditions: Homo sapiens, U-937; AML(FLT3wt); read-out: GI50 U937
[15] = test system: MEC-2; test: Anti-proliferative effect
[16] = test system: OCI-AML-3; test: Anti-proliferative effect; conditions: Homo sapiens, AML(FLT3wt)
[17] = test system: HL-60; test: Anti-proliferative effect; conditions: Homo sapiens, HL-60; AML (FLT3 wt); read-out: GI50 HL-60
[18] = test system: SKM-1; test: Anti-proliferative effect; conditions: Homo sapiens, SKM-1; AML(FLT3wt); read-out: GI50 SKM-1
[19] = test system: MEC-1; test: Anti-proliferative effect; conditions: Homo sapiens, MEC1; CLL
[20] = test system: LAMP1 localization in HeLa cells; test: Immunofluorescence of LAMP1 localization
Protocol: (§1) HeLa cells were treated with different concentrations of inhibitors for 16 hours. For all immunofluorescence experiments, cells were fixed in -20 °C methanol for 5 minutes or 3.7% (v/v) formaldehyde in phosphate-buffered saline (PBS) for 20 minutes. For LC3B staining, cells were fixed in -20 °C methanol. For EEA1 and LAMP1 staining, cells were fixed in PBS+ formaldehyde. Cells were then permeabilized with TBSTx (0.1% Triton X-100), blocked in AbDil (TBSTx + 2% BSA + 0.1% NaN3), and probed with primary and secondary antibodies diluted in AbDil. Cells were rinsed thoroughly with TBSTx and mounted by anti-fade prolong Gold with DAPI. Images were taken using a Leica DMI4000B fluorescent microscope. All experiments were repeated at least three times). […] Cells were lysed in lysis buffer. P62, LC3B, and GAPDH antibodies were used for immunoblotting.

[21] = test system: LC3B puncta in HeLa cells; test: Immunofluorescence of LC3B puncta; conditions: 16 hours
Protocol: as §1

[22] = test system: MV4-11; test: Drug combination study (CellTiter-Glo, 72 hours); conditions: Homo sapiens, VPS34-IN-1 3.3 μM, normalized to DMSO, read-out: Relative activity(%) (MV4-11)
Protocol: (§2) A combination of the PI3K kinase inhibitor CAL101 with the VPS34 inhibitor VPS34-IN-1, was used to treat the cell lines. Cell proliferation were determined after treatment with the compounds for 72 hours. Cell viability was measured using the CellTiter–Glo assay (Promega, USA), data were normalized to control groups (DMSO) and represented by the mean of three independent measurements with a standard error <20%.

[23] = test system: Namalwa; test: Drug combination study (CellTiter-Glo, 72 hours); conditions: VPS34-IN-1 3.3 μM, normalized to DMSO, read-out: Relative activity(%) (Namalwa)
Protocol: as §2

[24] = test system: MEC-2; test: Drug combination study (CellTiter-Glo, 72 hours); conditions: MEC2, 72 h, read-out: Relative activity(%) (MEC-2)
Protocol: as §2

[25] = test system: OCI-AML-2; test: Drug combination study (CellTiter-Glo, 72 hours); conditions: Homo sapiens, OCI-AML2, VPS34-IN-1 1.1 μM, normalized to DMSO, read-out: Relative activity(%) (OCI-AML-2)
Protocol: as §2

GI50 [3] | GI50 [6] | GI50 [8] | GI50 [10] | GI50 [11] | GI50 [14] | GI50 [16] | GI50 [17] | GI50 [18] | Structure (SMILES) | GI50 ([1]; AML(FLT3wt)) | GI50 [2] | GI50 [4] | GI50 [5] | GI50 [7] | GI50 [9] | effect on pERK [12] | GI50 [13] | GI50 [19] | further results
> 10 µM | 7.8 µM | > 10 µM | > 10 µM | > 10 µM | > 10 µM | 2.4 µM | > 10 µM | > 10 µM | CC[C@H](Nc1ncnc2[nH]cnc12)c1nc2cccc(F)c2c(=O)n1-c1ccccc1 [CAL-101] | > 10 µM | > 10 µM | > 10 µM | > 10 µM | > 10 µM | > 10 µM | significantly inhibited | > 10 µM | > 10 µM | GI50 ([15]; MEC2, CLL, read-out: GI50 MEC-2): > 10 µM
2.1 µM | 0.3 µM | 2 µM | 0.15 µM | 1.4 µM | 1.6 µM | 0.73 µM | 0.16 µM | 0.3 µM | CS(=O)(=O)N1CCN(Cc2cc3nc(-c4cccc5[nH]ncc45)nc(N4CCOCC4)c3s2)CC1 [GDC-0941] | 0.3 µM | 0.39 µM | 1 µM | 1 µM | > 10 µM | 0.5 µM | significantly inhibited | – | – | –

Structure (SMILES) | GI50 [3] | GI50 [6] | GI50 [8] | GI50 [10] | GI50 [11] | GI50 [14] | GI50 [16] | GI50 [17] | GI50 [18] | GI50 ([1]; AML(FLT3wt)) | GI50 [2] | GI50 [4] | GI50 [5] | GI50 [7] | GI50 [9] | effect on pERK [12] | GI50 [13] | GI50 [19] | further results
CC(C)(O)CNc1ncc(-c2ccnc(Nc3ccnc(Cl)c3)n2)c(CC2CC2)n1 [VPS34-IN-1] | 3.3 µM | 7.8 µM | 6.6 µM | 0.7 µM | 2.4 µM | 2.1 µM | 3.6 µM | 0.51 µM | 6.4 µM | – | 8.1 µM | 1.8 µM | 6.4 µM | 1.7 µM | 1.4 µM | – | 3 µM | 3.7 µM | GI50 [1]: 5.9 µM; Effect on lysosome marker LAMP1 localization [20]: affected; Effect on LC3B puncta [21]: increased LC3B puncta; GI50 ([15]; MEC2, read-out: GI50 MEC-2): 3.1 µM; activity at 3.3 µM [22]: 43.6%; activity at 3.3 µM [23]: 77.8%; activity at 10 µM [24]: 30.4%; activity at 1.1 µM [25]: 82.8%
